Patent US5461057A, “Hydro-ethano-indeno-pyridines” (priority 1994, dated 1995)
Like-named read-outs stand apart in the source and are kept apart here.

Tests used:
[1] = tested on: M27 murine lung carcinoma cell adhesion to fibronectin; assay: M27 lung carcinoma cell adhesion to fibronectin; type: cell-based; details: Mus musculus; read-out: M27 FN IC50
Procedure: (§1) Adhesion assays were run essentially as described previously (Pai et al., J. Biomed. Res. 2: 53, 1992). 96-well plates were coated with human fibronectin (140 ng/well), human vitronectin (75 ng/well), human collagen I (100 ng/well), human collagen IV (100 ng/well), human fibrinogen (1 μg/well), murine laminin (600 ng/well), or polylysine, and incubated overnight in a humidified 37° C. incubator. Excess fibronectin or other substrate was then removed and 0.2 ml of 2 mg/ml bovine serum albumin (BSA)in Dulbecco's phosphate-buffered saline (DPBS) was added to each well, incubated for 2 hours at 37° C., and removed. LOX human melanoma cells, M27 murine lung carcinoma cells or B16F10 mouse melanoma cells were detached from tissue culture flasks with RPMI medium containing 0.2M urea and 10 mM EDTA, and 0.18 ml of cells were added to each well to a final cell concentration of 1×10^5 cells/well. For inhibition studies 20 μl of 10× compound was added to the wells prior to cell addition. Cells were allowed to adhere for 1 hour at 37° C. The wells were then gently washed twice with 0.2 ml DPBS. The fluorescent dye calcein AM (Molecular Probes, Eugene Oreg.) in DPBS (0.1 ml of 1 μM) was added to each well, and the plates were incubated for 1 hour at room temperature. Adherent cells were quantitated by reading the fluorescence on a Cytofluor 2300 fluorescent plate reader (Millipore) at 485 nm excitation and 530 nm emission.

[2] = tested on: LOX human melanoma cells; assay: Tumor cell invasion through collagen/fibronectin coated membranes; type: cell-based; details: for IC50: Homo sapiens, 5 hours; for inhibition of in vitro tumor cell invasion: fibronectin/collagen matrix
Procedure: […] Cell Invasion Through Collagen/Fibronectin Coated Membranes:
Nucleopore polycarbonate membranes (8 μm pore size) were coated with 0.05 ml of type I collagen and allowed to dry overnight. 210 μl of serum free DMEM with BSA was added to each Boyden chamber. Membranes were placed in chambers and upper chambers were screwed on. Human fibronectin (50 μl of 0.1 mg/ml solution in DMEM with BSA) was added to the top chamber and allowed to sit on membranes for 1 hour at room temperature. Compounds (50 μl) at 10× concentration in DMEM with BSA were added to the chambers. LOX melanoma cells were detached from flasks with trypsin/EDTA solution and resuspended in RPMI with 10% fetal bovine serum. Cells were centrifuged, washed 2× with DMEM with BSA, and resuspended in 10 ml of DMEM with BSA. LOX cells (0.45 ml of 7.8×10^5 cells per ml) were added to each chamber and chambers were incubated for 5 hours at 37° C. The medium was removed from the upper chamber by aspiration, the top chamber was unscrewed, and the membrane was removed. The membrane was inverted, pinned to a dissecting tray, and fixed with Diff Quik fixative for 3 minutes The fixative was then removed and Diff Quik Stain was added for 2 minutes. The stain was decanted and membranes were rinsed with distilled water. Membranes were inverted onto glass slides, and non-invading cells were wiped away with a cotton swab. Permount was added to the slide and the membrane was covered with a cover slip. The number of cells that invaded was quantitated on a Nikon TMS microscope with C-2 Image Analyzer software (Olympus Corp.).
The greater potency of the compounds in this assay (IC50 for compound B<400 nM) may result from the longer duration of this assay (5 hours) relative to the fibronectin adhesion assay (1 hour).

[3] = target: ELAM-1 (Homo sapiens, UniProt P16581); assay: cell-based
Procedure: Cell adhesion to ELAM-1 was measured essentially as described previously (Pal et al., J. Biomed. Res. 2: 53, 1992). Undifferentiated HL-60 leukemia cells were prelabelled for 30 minutes with 1 μM calcein AM in DPBS without calcium or magnesium, and the cells were washed twice with the same medium before addition to 96-well plates containing monolayers of mouse L cells (5×10^4 cells/well) transfected with cDNA for the adhesion molecule ELAM-1. Adhesion was allowed to proceed for 30 minutes at room temperature before washing and quantitation of the remaining fluorescent HL-60 cells as described above.
ELAM-1 (E-selectin) is a member of the selectin class of adhesion molecules.

[4] = tested on: LOX human melanoma cell adhesion to murine laminin; assay: LOX cell adhesion to laminin; type: cell-based; details: read-out: Laminin IC50
Procedure: as §1

[5] = tested on: LOX human melanoma cell adhesion to human collagen IV; assay: LOX cell adhesion to collagen IV; type: cell-based; details: read-out: Collagen IV IC50
Procedure: as §1

[6] = tested on: acetic acid-induced writhing; assay: Acetic Acid Writhing Test in Mice; type: in vivo, mouse; details: Mus musculus, po, read-out: WRITH ED50
Text: The blockade of writhing induced by the intraperitoneal injection of acetic acid is an established experimental animal model for the screening of antinociceptive drugs (drugs which prevent the appreciation or transmission of pain sensations).
The procedure for the Acetic Acid Writhing Test in Mice is set forth in Hendershot et al, J. Pharmacol. Exp. Therap. 125:237, (1959); Koster et al., Fed. Proc. 18:412, (1959); and international application PCT/US91/06705, filed 20 Sep. 1991, which are hereby incorporated by reference.
The results for this test are given below in the units of mg/kg which is also abbreviated in this specification as mpk. The results for this test are given as effective doses (ED50 's).

[7] = tested on: TBZ-induced ptosis; assay: Effects on tetrabenazine (TBZ)-induced ptosis in mice; type: in vivo, mouse; details: Mus musculus, po
Text: Clinically active antidepressant drugs are known to block TBZ-induced ptosis in mice (See Psychosomatic Medicine, Nodine and Moyer, Eds. Lea and Febiger, Philadelphia, 1962, pp 683-90, which is hereby incorporated by reference). Activity in this test is used to predict anti-depressant activity in man.
The procedure for the TBZ-Induced Ptosis Test in Mice is set forth in Psychosomatic Medicine, Nodine and Moyer, Eds. Lea and Febiger, which is hereby incorporated by reference and in PCT/US91/06705, filed 20 Sep. 1991, which is mentioned above.
The results for this test are given below as ED50 's in the units of mg/kg.
TBZ refers to the test of effects on tetrabenazine induced ptosis in mice, p.o.;

[8] = tested on: methamphetamine toxicity; assay: Methamphetamine toxicity test in mice; type: in vivo; details: Mus musculus, read-out: METHA ED50
Procedure: The methamphetamine toxicity test in mice was carried out as described in Burn et al, Arch. Int. Pharmacodyn 113:290-295, (1958); and Coscia et al, Arzneim-Forsch (Drug Research) 25:1436-1442, (1975); which are hereby incorporated by reference.
(§2) The results for this test are given below as ED50's in the units of mg/kg.
METHA refers to the methamphetamine toxicity test in mice;

[9] = tested on: metrazole; assay: Anti-metrazole test in mice; type: in vivo, mouse; details: Mus musculus, read-out: MTZ ED50
Procedure: The anti-metrazole test in mice was carried out as described in Everett et al, J. Pharmacol. Exp. Therap. 81:402-407 (1944); which is hereby incorporated by reference.
as §2

ELAM-1, sequence (P16581 22-610): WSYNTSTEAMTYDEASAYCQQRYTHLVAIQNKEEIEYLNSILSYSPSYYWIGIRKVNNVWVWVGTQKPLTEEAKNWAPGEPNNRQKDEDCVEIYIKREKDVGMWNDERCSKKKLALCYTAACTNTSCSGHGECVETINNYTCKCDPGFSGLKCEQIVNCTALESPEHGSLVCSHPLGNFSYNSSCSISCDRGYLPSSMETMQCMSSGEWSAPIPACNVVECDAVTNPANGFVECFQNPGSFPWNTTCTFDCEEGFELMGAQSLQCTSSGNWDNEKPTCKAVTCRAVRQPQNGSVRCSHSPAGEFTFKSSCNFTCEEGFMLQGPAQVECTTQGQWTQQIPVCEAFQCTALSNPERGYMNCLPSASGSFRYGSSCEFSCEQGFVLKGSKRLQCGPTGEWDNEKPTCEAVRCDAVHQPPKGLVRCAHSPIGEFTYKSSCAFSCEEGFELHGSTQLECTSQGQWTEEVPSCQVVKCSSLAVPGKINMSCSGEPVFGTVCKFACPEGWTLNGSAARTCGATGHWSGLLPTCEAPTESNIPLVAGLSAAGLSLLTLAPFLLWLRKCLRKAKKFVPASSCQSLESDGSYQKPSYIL

| SMILES | IC50 [1] [µM] | IC50 ([2]; read-out: Invasion IC50) [µM] | inhibition of in vitro tumor cell invasion [2] | IC50 [3] [µM] | IC50 [4] [µM] | IC50 [5] [µM] | ED50 [6] [mg/kg] | ED50 [7] [mg/kg] | ED50 [8] [mg/kg] | ED50 [9] [mg/kg] | IC50 ([2]; read-out: Invasion IC50 (text)) [µM] |
| --- | --- | --- | --- | --- | --- | --- | --- | --- | --- | --- | --- |
| CN1C2CCC1C1C(=C(c3ccc(Cl)cc3)c3ccccc31)C2 (centres unmarked) [C] | 13.7 | 0.66 | inhibit in vitro tumor cell invasion through a fibronectin/collagen matrix | > 50 | 3.5 | 9.9 |  |  |  |  |  |
| COc1ccc(C2=C3CC4CCC(N4)C3c3ccccc32)cc1 (centres unmarked) [Compound B] | 17.1 | < 0.4 | inhibit in vitro tumor cell invasion through a fibronectin/collagen matrix | > 50 | 7.7 | 16.2 | > 30 | 12 | > 30 | > 30 | < 0.4 |
| Cc1ccc(C2=C3CC4CCC(C3c3ccccc32)N4C)cc1 (centres unmarked) [J] | 17.9 | 0.48 | inhibit in vitro tumor cell invasion through a fibronectin/collagen matrix | > 50 | 2.5 | 10 |  |  |  |  |  |
